Our source for the Ki values is ChEMBL document CHEMBL5726298, “Heteroaryl-pyrimidinone compounds as PDE2 inhibitors” (2019).

By Ki is commonly meant the dissociation constant of the complex between target and ligand, obtained from inhibition or displacement. Higher therefore signals weaker binding.

For the experiment, the target named is T1, GMP-stimulated 3',5'-cyclic nucleotide phosphodiesterase (Macaca mulatta, UniProt B3VTJ2).
T1 sequence (B3VTJ2 whole entry): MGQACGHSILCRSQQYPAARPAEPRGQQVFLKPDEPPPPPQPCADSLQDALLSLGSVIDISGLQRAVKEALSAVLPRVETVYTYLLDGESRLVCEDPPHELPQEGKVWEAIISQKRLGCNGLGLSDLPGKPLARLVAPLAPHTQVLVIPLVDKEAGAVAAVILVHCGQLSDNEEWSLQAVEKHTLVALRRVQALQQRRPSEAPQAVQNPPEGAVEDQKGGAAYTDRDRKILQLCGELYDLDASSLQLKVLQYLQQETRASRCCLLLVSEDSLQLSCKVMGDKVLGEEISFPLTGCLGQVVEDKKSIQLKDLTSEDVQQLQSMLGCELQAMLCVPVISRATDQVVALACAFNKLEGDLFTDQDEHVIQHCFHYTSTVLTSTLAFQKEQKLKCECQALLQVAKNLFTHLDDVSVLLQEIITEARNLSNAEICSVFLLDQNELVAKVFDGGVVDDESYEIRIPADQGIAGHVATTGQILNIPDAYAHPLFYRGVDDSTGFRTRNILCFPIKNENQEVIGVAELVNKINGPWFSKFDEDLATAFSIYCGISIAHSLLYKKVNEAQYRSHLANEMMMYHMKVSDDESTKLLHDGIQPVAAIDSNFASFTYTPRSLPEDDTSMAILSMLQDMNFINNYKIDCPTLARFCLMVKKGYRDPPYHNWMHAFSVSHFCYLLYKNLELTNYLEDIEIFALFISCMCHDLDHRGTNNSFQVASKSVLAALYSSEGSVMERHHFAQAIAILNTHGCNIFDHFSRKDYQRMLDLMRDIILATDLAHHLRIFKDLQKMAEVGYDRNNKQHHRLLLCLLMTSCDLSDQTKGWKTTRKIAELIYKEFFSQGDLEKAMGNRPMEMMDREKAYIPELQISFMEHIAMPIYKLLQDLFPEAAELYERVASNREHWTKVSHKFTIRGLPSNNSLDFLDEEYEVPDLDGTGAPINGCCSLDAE
The experiment can be described thus: PDE2A3 assay: The activity of the compounds in accordance with the present invention as PDE2 inhibitors may be readily determined using a fluorescence polarization (FP) methodology (Huang, W., et al., J. Biomol Screen, 2002, 7: 215). […] Done in Lab A for rhPDE2A3. Background: In fluorescence polarisation assays a small probe gives low polarisation when free and higher when bound to something large.

In the case of `Cc1nc(-c2csc(C(C)c3ccc(C(F)(F)F)cc3)n2)cc(=O)[nH]1` (stereo unspecified), the Ki worked out at 1240 nM.
